Data as given in paper PMC2248166, “Quantitative peptide binding motifs for 19 human and mouse MHC class I molecules derived using positional scanning combinatorial peptide libraries” (Immunome Research, 2008).

Legend:
HLA B*5401 = HLA B*5401 (Homo sapiens, UniProt P01889, A329T/C349S/D138N/D201E/E176V/E187T/E204Q/E69G/I76V/K202T/L119W/R155S/R180L/S121T/S35A/S48A/V127L/V306I/V36M/Y140L); type: binding
H-2 D^b = H-2 D^b (Mus musculus, UniProt P01899); type: binding
HLA B*5802 = HLA B*5802 (Homo sapiens, UniProt P01889, A329T/C349S/D201E/D98Y/E176V/E187L/E204Q/E69T/G107R/I218V/I90N/K202T/L105A/N104I/N87E/Q89R/Q94S/R106L/R155S/R180L/R86G/S101N/S121W/S35A/S48A/V127L/V306I/V36M/Y140S/Y91M); type: binding
HLA B*1503 = HLA B*1503 (Homo sapiens, UniProt P01889, A329T/A93T/A95T/C349S/D201E/D98Y/E187L/E204Q/K202T/N87E/Q94N/R155S/R180L/S121R/S35A/V306I/V36M/Y140S/Y91S); assay: biochemical; type: binding
H-2 D^d = H-2 D^d (Mus musculus, UniProt P01900); type: binding
HLA B*5301 = HLA B*5301 (Homo sapiens, UniProt P01889, A329T/A93T/A95T/C349S/D201E/D98Y/E176V/E187L/E204Q/E69T/G107R/I218V/K202T/L105A/L119I/N104I/Q94N/R106L/R155S/R180L/S101N/S121R/S35A/S48A/T118I/V127L/V306I/V36M/Y140S/Y91F); type: binding
HLA A*0201 = HLA A*0201 (Homo sapiens, UniProt P04439, D140Y/D185E/D98H/E176V/E277Q/G131W/G231S/I119V/I121R/I166T/I218V/L300P/L318F/N151K/N90K/P208A/P217A/Q86G/Q94H/R138H/R169H/T345S); details: positional scanning combinatorial 9-mer library; normalized to 1.0 for the best residue at each position
H-2 K^k = H-2 K^k (Mus musculus, UniProt P04223); type: binding
HLA B*1501 = HLA B*1501 (Homo sapiens, UniProt P01889, A329T/A93T/A95T/C349S/D201E/D98Y/E187L/E204Q/E69M/E70A/K202T/N87E/Q94N/R155S/R180W/S121R/S35A/S48A/V306I/V36M/Y140S/Y91S); assay: biochemical; type: binding
HLA B*5101 = HLA B*5101 (Homo sapiens, UniProt P01889, A329T/A93T/A95T/C349S/D138N/D201E/D98Y/E187L/E204Q/E69T/G107R/I218V/K202T/L105A/L119W/N104I/Q94N/R106L/R155S/R180L/S101N/S121T/S35A/S48A/V306I/V36M/Y195H/Y91F); type: binding
HLA B*5801 = HLA B*5801 (Homo sapiens, UniProt P01889, A329T/C349S/D201E/D98Y/E176V/E187L/E204Q/E69T/G107R/I218V/I90N/K202T/L105A/L119I/N104I/N87E/Q89R/Q94S/R106L/R155S/R180L/R86G/S101N/S121R/S35A/S48A/T118I/V127L/V306I/V36M/Y140S/Y91M); type: binding
HLA B*2705 = HLA B*2705 (Homo sapiens, UniProt P01889, D138H/D201E/E176V/E204Q/G107R/H137Y/K202T/N104T/N87E/Q56L/Q94K/R106L/R155S/R180L/S101D/S121N/S48T/Y140D/Y33H/Y91C); type: binding; details: positional scanning combinatorial 9-mer library; normalized to 1.0 for the best residue at each position
HLA B*3501 = HLA B*3501 (Homo sapiens, UniProt P01889, A329T/A93T/A95T/C349S/D201E/D98Y/E176V/E187L/E204Q/E69T/I218V/K202T/L119I/Q94N/R155S/R180L/S121R/S35A/S48A/T118I/V127L/V306I/V36M/Y140S/Y91F); type: binding
HLA A*3201 = HLA A*3201 (Homo sapiens, UniProt P04439, A270S/D101S/D185E/E176V/E277Q/F133L/G103R/G107R/G231S/H175R/I121M/I218V/I322F/K168Q/L105A/L300P/L318F/M331R/P208A/P217A/Q94H/R106L/R138Q/S129P/T104I/T323A/T345S/V100E/V321M/V358M); assay: biochemical; type: binding
HLA B*0801 = HLA B*0801 (Homo sapiens, UniProt P01889, A93T/A95T/D138N/E176V/E187T/K202T/Q94N/R180D/S35A/V36M/Y33D/Y91F); assay: biochemical; type: binding
HLA A*3001 = HLA A*3001 (Homo sapiens, UniProt P04439, D140H/D185E/E176W/F33S/G80R/H175R/K168Q/R138E/R41S); assay: biochemical; type: binding
HLA A*6802 = HLA A*6802 (Homo sapiens, UniProt P04439, A269V/D140Y/D185E/E176V/E277Q/E87N/F33Y/G231S/I121R/I166T/I218V/L180W/L300P/L318F/N151K/P208A/P217A/Q86R/R138H/R169H/S129P/T345S/V36M); type: binding
HLA B*0702 = HLA B*0702 (Homo sapiens, UniProt P01889); type: binding; details: positional scanning combinatorial 9-mer library; normalized to 1.0 for the best residue at each position

Chain of H-2 D^b (P01887 21-119): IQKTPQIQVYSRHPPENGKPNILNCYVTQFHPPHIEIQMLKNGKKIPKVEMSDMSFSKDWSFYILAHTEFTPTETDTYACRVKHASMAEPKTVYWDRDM
Chain of H-2 D^b (P01899 25-362): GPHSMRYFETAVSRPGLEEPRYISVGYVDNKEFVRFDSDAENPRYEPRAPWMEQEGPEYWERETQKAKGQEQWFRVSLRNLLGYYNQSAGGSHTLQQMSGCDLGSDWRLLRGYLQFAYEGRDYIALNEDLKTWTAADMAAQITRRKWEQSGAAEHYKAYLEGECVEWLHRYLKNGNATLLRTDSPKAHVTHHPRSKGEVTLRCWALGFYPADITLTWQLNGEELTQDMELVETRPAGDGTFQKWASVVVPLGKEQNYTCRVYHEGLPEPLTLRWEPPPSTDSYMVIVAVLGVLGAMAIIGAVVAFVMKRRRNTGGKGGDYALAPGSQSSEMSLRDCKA
Chain of H-2 K^k (P01887 21-119): as the sequence (P01887 21-119) above
Chain of H-2 K^k (P04223 22-369): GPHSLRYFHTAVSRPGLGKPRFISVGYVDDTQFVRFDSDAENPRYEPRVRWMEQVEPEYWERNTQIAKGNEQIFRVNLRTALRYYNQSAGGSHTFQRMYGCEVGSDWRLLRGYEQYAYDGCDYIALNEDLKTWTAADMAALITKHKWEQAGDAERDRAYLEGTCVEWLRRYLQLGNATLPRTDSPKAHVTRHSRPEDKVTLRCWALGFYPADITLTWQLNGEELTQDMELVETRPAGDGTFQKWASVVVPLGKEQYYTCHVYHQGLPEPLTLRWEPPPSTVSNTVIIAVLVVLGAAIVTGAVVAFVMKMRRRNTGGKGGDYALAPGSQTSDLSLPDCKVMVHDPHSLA
Chain of H-2 D^d (P01900 whole entry, looked up): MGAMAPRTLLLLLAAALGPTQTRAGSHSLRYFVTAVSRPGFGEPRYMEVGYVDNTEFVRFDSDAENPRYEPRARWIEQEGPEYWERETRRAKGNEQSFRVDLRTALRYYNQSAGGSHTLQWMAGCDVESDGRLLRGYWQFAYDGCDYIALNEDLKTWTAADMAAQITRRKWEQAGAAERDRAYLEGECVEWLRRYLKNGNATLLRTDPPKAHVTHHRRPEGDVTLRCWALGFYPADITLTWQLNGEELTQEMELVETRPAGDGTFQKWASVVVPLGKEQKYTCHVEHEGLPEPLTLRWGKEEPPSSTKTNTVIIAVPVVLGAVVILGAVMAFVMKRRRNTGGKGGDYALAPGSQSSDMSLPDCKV

| Sequence | Normalized average relative binding affinity (ARB), HLA B*5401 (HLA B*5401) | Normalized average relative binding affinity (ARB), H-2 Db (H-2 D^b) | Normalized average relative binding affinity (ARB), HLA B*5802 (HLA B*5802) | Normalized average relative binding affinity (ARB), HLA B*1503 (HLA B*1503) | Normalized average relative binding affinity (ARB), H-2 Dd (H-2 D^d) | Normalized average relative binding affinity (ARB), HLA B*5301 (HLA B*5301) | Normalized average relative binding affinity (ARB), HLA A*0201 (HLA A*0201) | Normalized average relative binding affinity (ARB), H-2 Kk (H-2 K^k) | Normalized average relative binding affinity (ARB), HLA B*1501 (HLA B*1501) | Normalized average relative binding affinity (ARB), HLA B*5101 (HLA B*5101) | Normalized average relative binding affinity (ARB), HLA B*5801 (HLA B*5801) | Normalized average relative binding affinity (ARB), HLA B*2705 (HLA B*2705) | Normalized average relative binding affinity (ARB), HLA B*3501 (HLA B*3501) | Normalized average relative binding affinity (ARB), HLA A*3201 (HLA A*3201) | Normalized average relative binding affinity (ARB), HLA B*0801 (HLA B*0801) | Normalized average relative binding affinity (ARB), HLA A*3001 (HLA A*3001) | Normalized average relative binding affinity (ARB), HLA A*6802 (HLA A*6802) | Normalized average relative binding affinity (ARB), HLA B*0702 (HLA B*0702) |
| --- | --- | --- | --- | --- | --- | --- | --- | --- | --- | --- | --- | --- | --- | --- | --- | --- | --- | --- |
| FXXXXXXXX [3064.0005] | 0.74 | 1.0 | 0.081 | 1.0 | 0.34 | 0.14 | 1.0 | 1.0 | 0.59 | 0.25 | 0.34 | 0.60 | 0.50 | 0.090 | 0.57 | 0.035 | 0.53 | 0.21 |
| GXXXXXXXX [3064.0006] | 0.0071 | 0.096 | 0.14 | 0.063 | 0.15 | 0.0086 | 0.089 | 0.14 | 0.43 | 0.028 | 0.069 | 0.60 | 0.030 | 0.14 | 0.088 | 0.11 | 0.022 | 0.15 |
| HXXXXXXXX [3064.0007] | 0.34 | 0.17 | 0.026 | 0.20 | 0.21 | 1.0 | 0.0048 | 0.91 | 0.59 | 0.15 | 0.43 | 0.49 | 1.0 | 0.38 | 0.18 | 0.49 | 0.53 | 0.80 |
| IXXXXXXXX [3064.0008] | 0.27 | 0.13 | 0.17 | 0.51 | 0.39 | 0.15 | 0.12 | 0.27 | 1.0 | 0.23 | 0.35 | 0.22 | 0.30 | 0.47 | 0.068 | 0.11 | 0.076 | 0.42 |
| KXXXXXXXX [3064.0009] | 0.037 | 0.14 | 1.0 | 0.46 | 0.18 | 0.0057 | 0.11 | 0.082 | 0.39 | 0.052 | 1.0 | 0.26 | 0.050 | 1.0 | 0.039 | 0.49 | 0.013 | 0.37 |
| LXXXXXXXX [3064.0010] | 0.19 | 0.20 | 0.044 | 0.52 | 0.29 | 0.14 | 0.054 | 0.49 | 0.61 | 0.41 | 0.53 | 0.26 | 0.31 | 0.48 | 0.22 | 0.081 | 0.071 | 0.23 |
